Test results: patent US8772288B2, “Substituted spiro[cycloalkyl-1,3′-indo]-2′(1′H)-one derivatives and their use as P38 mitogen-activated kinase inhibitors” (Almirall, S.A., priority 2008, dated 2014)

Biological target: human p38alfa (SAPKa) enzyme (Homo sapiens (Human), UniProt Q16539)
Assay: Inhibition Assay: p38 enzymatic activity (ATF2 phosphorylation, FRET)
Type: biochemical
Details: read-out: p38α IC50

Chain of human p38alfa (SAPKa) enzyme (Q16539 whole entry): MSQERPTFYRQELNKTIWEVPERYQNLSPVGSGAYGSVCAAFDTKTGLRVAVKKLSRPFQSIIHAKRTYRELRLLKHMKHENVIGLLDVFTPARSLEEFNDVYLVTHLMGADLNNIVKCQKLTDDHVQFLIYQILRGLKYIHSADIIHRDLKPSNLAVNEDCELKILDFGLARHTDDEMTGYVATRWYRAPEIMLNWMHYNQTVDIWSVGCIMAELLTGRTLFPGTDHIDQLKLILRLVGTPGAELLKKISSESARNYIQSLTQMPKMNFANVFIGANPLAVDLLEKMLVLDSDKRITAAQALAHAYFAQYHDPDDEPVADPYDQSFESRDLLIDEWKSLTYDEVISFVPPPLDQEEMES

Compound	IC50 [nM]
Cc1ccc(C(N)=O)cc1-c1ccc2c(c1)NC(=O)C2(C)C [Example 7, 3-(3,3-dimethyl-2-oxoindolin-6-yl)-4-methylbenzamide]	80
Cc1ccc(C(=O)NCC2CC2)cc1-c1ccc2c(c1)NC(=O)C2(C)C [Example 18, N-(Cyclopropylmethyl)-3-(3,3-dimethyl-2-oxoindolin-6-yl)-4-methylbenzamide]	27
Cc1ccc(C(=O)Nc2ccon2)cc1-c1ccc2c(c1)NC(=O)C2(C)C [Example 19, 3-(3,3-Dimethyl-2-oxo-2,3-dihydro-1H-indol-6-yl)-N-isoxazol-3-yl-4-methylbenzamide]	0.04
Cc1ccc(C(=O)NC2CC2)cc1-c1ccc2c(c1)NC(=O)C21CCOCC1 [Example 22, N-Cyclopropyl-4-methyl-3-(2-oxo-2′,3′,5′,6′-tetrahydrospiro[indoline-3,4′-pyran]-6-yl)benzamide]	1.4
Cc1ccc(C(=O)Nc2ccon2)cc1-c1ccc2c(c1)NC(=O)C21CCOCC1 [Example 23, N-Isoxazol-3-yl-4-methyl-3-(2-oxo-1,2,2′,3′,5′,6′-hexahydrospiro[indole-3,4′-pyran]-6-yl)benzamide]	0.06
Cc1ccc(C(=O)NC2CC2)cc1-c1ccc2c(c1)NC(=O)C21CCS(=O)(=O)CC1 [Example 27, N-Cyclopropyl-3-(1′,1′-dioxido-2-oxo-1,2,2′,3′,5′,6′-hexahydrospiro[indole-3,4′-thiopyran]-6-yl)-4-methylbenzamide]	6.7
Cc1c(F)cc(C(=O)NC2CC2)cc1-c1ccc2c(c1)NC(=O)C21CCN(S(C)(=O)=O)CC1 [Example 31, N-cyclopropyl-3-fluoro-4-methyl-5-(1′-(methylsulfonyl)-2-oxospiro[indoline-3,4′-piperidine]-6-yl)benzamide]	1
Cc1ccc(C(=O)NC2CC2)cc1-c1ccc2c(c1)NC(=O)C21CCC(F)(F)CC1 [Example 32, N-Cyclopropyl-3-(4,4-difluoro-2′-oxospiro[cyclohexane-1,3′-indoline]-6′-yl)-4-methylbenzamide]	1.8
Cc1ccc(C(=O)NC2CC2)cc1-c1ccc2c(c1)NC(=O)C21CCC(O)CC1 (stereo not drawn) [Example 34, N-cyclopropyl-3-(4-hydroxy-2′-oxospiro[cyclohexane-1,3′-indoline]-6′-yl)-4-methylbenzamide]	1.4
Cc1ccc(C(=O)NC2CC2)cc1-c1ccc2c(c1)NC(=O)C21CCC(C)(O)CC1 (stereo not drawn) [Example 37, N-cyclopropyl-3-(4-hydroxy-4-methyl-2′-oxospiro[cyclohexane-1,3′-indoline]-6′-yl)-4-methylbenzamide]	0.8
Cc1ccc(C(=O)NC2CC2)cc1-c1ccc2c(c1)NC(=O)C21CCC(N2CCOCC2)CC1 (stereo not drawn) [Example 40, N-cyclopropyl-4-methyl-3-(4-morpholino-2′-oxospiro[cyclohexane-1,3′-indoline]-6′-yl)benzamide]	1
Cc1ccc(C(=O)NC2CC2)cc1-c1ccc2c(n1)NC(=O)C21CCCC1 [Example 43, N-Cyclopropyl-4-methyl-3-(2′-oxo-1′,2′-dihydrospiro[cyclopentane-1,3′-pyrrolo[2,3-b]pyridine]-6′-yl)benzamide]	5.6
Cc1ccc(C(=O)NC2CC2)cc1-c1cnc2c(c1)NC(=O)C2(C)C [Example 45, N-Cyclopropyl-3-(3,3-dimethyl-2-oxo-2,3-dihydro-1H-pyrrolo[3,2-b]pyridin-6-yl)-4-methylbenzamide]	62
Cc1ccc(C(=O)NC2CC2)cc1-c1cnc2c(c1)NC(=O)C21CCOCC1 [Example 47, N-Cyclopropyl-4-methyl-3-(2′-oxo-1′,2,2′,3,5,6-hexahydrospiro[pyran-4,3′-pyrrolo-[3,2-b]pyridin]-6′-yl)benzamide]	13
Cc1ccc(C(=O)NC2CC2)cc1-c1cc2c(cn1)C1(CCCC1)C(=O)N2 [Example 51, N-Cyclopropyl-4-methyl-3-(2′-oxo-1′,2′-dihydrospiro[cyclopentane-1,3′-pyrrolo[3,2-c]pyridin]-6′-yl)benzamide]	0.8
Cc1ccc(C(=O)NC2CC2)cc1-c1ncc2c(n1)NC(=O)C21CCCC1 [Example 52, N-Cyclopropyl-4-methyl-3-(6′-oxo-6′,7′-dihydrospiro[cyclopentane-1,5′-pyrrolo[2,3-c]pyrimidin]-2′-yl)benzamide]	72
Cc1nnc(-c2ccc(C)c(-c3ccc4c(c3)NC(=O)C43CCCC3)c2)[nH]1 [Example 53, 6′-(2-Methyl-5-(5-methyl-4H-1,2,4-triazol-3-yl)phenyl)spiro[cyclopentane-1,3′-indolin]-2′-one]	7.5
Cc1nnc(-c2ccc(C)c(-c3ccc4c(c3)NC(=O)C43CCC3)c2)[nH]1 [Example 54, 6′-[2-Methyl-5-(5-methyl-4H-1,2,4-triazol-3-yl)phenyl]spiro[cyclobutane-1,3′-indol]-2′(1′H)-one]	18
Cc1ccc(-c2ncn[nH]2)cc1-c1ccc2c(c1)NC(=O)C21CCCC1 [Example 55, 6′-(2-Methyl-5-(4H-1,2,4-triazol-3-yl)phenyl)spiro[cyclopentane-1,3′-indolin]-2′-one]	9
Cc1nnc(-c2ccc(C)c(-c3ccc4c(c3)NC(=O)C43CCOCC3)c2)[nH]1 [Example 59, 6-(2-Methyl-5-(5-methyl-4H-1,2,4-triazol-3-yl)phenyl)-2′,3′,5′,6′-tetrahydrospiro[indoline-3,4′-pyran]-2-one]	10
Cc1nnc(-c2cc(F)c(C)c(-c3ccc4c(c3)NC(=O)C43CCOCC3)c2)[nH]1 [Example 61, 6-[3-Fluoro-2-methyl-5-(5-methyl-4H-1,2,4-triazol-3-yl)phenyl]-2′,3′,5′,6′-tetrahydro-spiro[indole-3,4′-pyran]-2(1H)-one]	8
Cc1nnc(-c2ccc(C)c(-c3ccc4c(c3)NC(=O)C43CCC(F)(F)CC3)c2)[nH]1 [Example 63, 4,4-Difluoro-6′-(2-methyl-5-(5-methyl-4H-1,2,4-triazol-3-yl)phenyl)spiro[cyclohexane-1,3′-indolin]-2′-one]	2
Cc1nnc(-c2cc(F)c(C)c(-c3ccc4c(c3)NC(=O)C43CCC(C)(O)CC3)c2)[nH]1 (stereo not drawn) [Example 65, 6′-(3-fluoro-2-methyl-5-(5-methyl-4H-1,2,4-triazol-3-yl)phenyl)-4-hydroxy-4-methylspiro[cyclohexane-1,3′-indolin]-2′-one]	8
Cc1nnc(-c2ccc(C)c(-c3ccc4c(c3)NC(=O)C43CCN(S(C)(=O)=O)CC3)c2)[nH]1 [Example 67, 6-(2-methyl-5-(5-methyl-4H-1,2,4-triazol-3-yl)phenyl)-1′-(methylsulfonyl)spiro[indoline-3,4′-piperidin]-2-one]	4.7
Cc1nnc(-c2ccc(C)c(-c3ccc4c(c3)NC(=O)C43CCCC3)c2)o1 [Example 70, 6′-(2-Methyl-5-(5-methyl-1,3,4-oxadiazol-2-yl)phenyl)spiro[cyclopentane-1,3′-indolin]-2′-one]	32
Cc1nnc(-c2ccc(C)c(-c3ccc4c(c3)NC(=O)C43CCC(F)(F)CC3)c2)o1 [Example 72, 4,4-Difluoro-6′-(2-methyl-5-(5-methyl-1,3,4-oxadiazol-2-yl)phenyl)spiro-[cyclohexane-1,3′-indolin]-2′-one]	5.6
Cc1nnc(-c2ccc(C)c(-c3ccc4c(c3)NC(=O)C43CCC(O)CC3)c2)o1 (stereo not drawn) [Example 73, 4-hydroxy-6′-(2-methyl-5-(5-methyl-1,3,4-oxadiazol-2-yl)phenyl)spiro[cyclohexane-1,3′-indolin]-2′-one]	5.7
